In patent publication US8507488B2, “Fused nitrogen containing heterocycles and compositions thereof as kinase inhibitors” (IRM LLC, priority 2008, dated 2013):
Like-named read-outs stand apart in the source and are kept apart here.

Tests used:
[1] = biological target: T1, full length rTrkA and mNGF (Rattus norvegicus, UniProt P35739); assay: Inhibition of proliferation of Ba/F3 cells co-expressing full length rTrkA and mNGF (BaF3/TrkA-NFG); format: cell-based; details: BaF3 TRKA-NGF cells, CTG readout
T1 construct: co-expressing full length rTrkA and mNGF; expressed in transfected cells; host or cells: Ba/F3 cells

Tel-TrkA = biological target: T2, Tel-TrkA (Homo sapiens, UniProt P04629); assay: Inhibition of proliferation of Ba/F3 cells expressing Tel-TrkA (BaF3/Tel-TrkA, luciferase/Bright Glo readout); format: cell-based; details: read-out: Ba/F3 Tel-TrkA IC 50
T2 construct: dimerization domain of Tel (ETV6) transcription factor (fusion partner, human ETV6 P41212); expressed in transfected cells; host or cells: luciferase expressing Ba/F3 murine hematopoietic progenitor cells; the other entry of the earlier key: ETV6 (P41212, Transcription factor ETV6)
Procedure: (§1) Test compounds were dissolved in DMSO (10 mM) and transferred into 1.4 mL flat bottom or V-shaped Matrix tubes carrying a unique 2D matrix chip by individual compound hubs. The numbers of these chips were distinctively linked to the individual compound identification numbers. The stock solutions were stored at −20° C. if not used immediately. For the test procedure the vials were defrosted and identified by a scanner whereby a working sheet is generated that guides the subsequent working steps.
(§2) Compound dilutions were made in 384 well plates. This format enabled the assay of maximally 28 individual test compounds at 12 concentrations (single points) including 2 reference compounds. The dilution protocol included the production of pre-dilution plates, master plates and assay plates: • Compound plates: 30 μL of individual compound (10 mM) DMSO solution including standard compound were transferred into columns 1 and 13 of a 384 well plate. 20 μL of DMSO were added to the rest of the wells and the compounds were serially diluted (1:3) by transferring 10 μL from a well in column 1 or 13 to the next well in column 2 or 14 respectively and successively with the help of a Minitrack robot. • Assay plates: Identical assay plates were then prepared by adding […] each of compound dilutions of the compound plates into 384-well “assay plates”. In the following the compounds were mixed with 50 μL of assays components (cells or enzyme) and tested for their inhibitory activity.
(§3) Compounds of Formula (I) were tested for their antiproliferative effect on Ba/F3 cells expressing either Tel-TrkA, Tel-TrkB or Tel-TrkC and an additional panel of 34 selected diverse kinases activated by fusion to the dimerizing partners Bcr or Tel (Abl, A1K, BMX, EphA3, EphB2, FGFR2, FGFR3, FGFR4, FGR, FLT1, FLT3, FLT4, FMS, IGF1R, InsR, JAK1, JAK2, JAK3, KDR, Kit, Lck, Lyn, MER, MET, PDGFRb, RET, RON, Ros-1, Src, Aurora, TIE2, TYK2, Tie1, ZAP70). The antiproliferative effect of these compounds on the different cell lines and on the non transformed cells were tested at 12 different concentrations of 3-fold serially diluted compounds in 384 well plates as described above (in media lacking IL3). The IC50 values of the compounds the different cell lines were determined from dose response curves.
(§4) The cell line used is the luciferase expressing Ba/F3 murine hematopoietic progenitor cell line transformed with human Tel-TrkA, Tel-TrkB or Tel-TrkC cDNAs (Ba/F3 EN A/B/C). These cells maintained in RPMI/10% fetal bovine serum (RPMI/FCS) supplemented with penicillin 50 mg/mL, streptomycin 50 mg/mL and L-glutamine […]. Untransformed Ba/F3 cells were similarly maintained with the addition 5 ng/ml of murine recombinant IL3. 50 μl of a Ba/F3 or Ba/F3 EN A/B/C cell suspension were plated in Greiner 384 well microplates (white)) at a density of 2000 cells per well. […] The cells were incubated for 48 hours at 37° C., 5% CO2. 25 μl of Bright Glo® (Promega) luciferase substrate is added to each well. The emited luminiscence is quantified using the ACQUEST™ luminescence system (Molecular Devices). IC50 values were calculated by linear regression analysis of the percentage inhibition of each compound at 12 concentrations.

parental BaF3 cells = assay: Proliferation of parental (untransformed) Ba/F3 cells maintained with IL3; format: cell-based, murine; details: read-out: Ba/F3 IC 50
Procedure: as §1, §2
The cell line used is the luciferase expressing Ba/F3 murine hematopoietic progenitor cell line transformed with human Tel-TrkA, Tel-TrkB or Tel-TrkC cDNAs (Ba/F3 EN A/B/C). These cells maintained in RPMI/10% fetal bovine serum (RPMI/FCS) supplemented with penicillin 50 mg/mL, streptomycin 50 mg/mL and L-glutamine […]. Untransformed Ba/F3 cells were similarly maintained with the addition 5 ng/ml of murine recombinant IL3. 50 μl of a Ba/F3 or Ba/F3 EN A/B/C cell suspension were plated in Greiner 384 well microplates (white)) at a density of 2000 cells per well. 50 nl of serially diluted test compound (10-0.0001 mM in DMSO solution) is added to each well. The cells were incubated for 48 hours at 37° C., 5% CO2. 25 μl of Bright Glo® (Promega) luciferase substrate is added to each well. The emited luminiscence is quantified using the ACQUEST™ luminescence system (Molecular Devices). IC50 values were calculated by linear regression analysis of the percentage inhibition of each compound at 12 concentrations.

Tel-TrkB = biological target: T3, Tel-TrkB (Homo sapiens, UniProt Q16620); assay: Inhibition of proliferation of Ba/F3 cells expressing Tel-TrkB (BaF3/Tel-TrkB); format: cell-based; details: Ba/F3 Tel-TrkB cells; read-out: Ba/F3 Tel-TrkB IC 50
T3 construct: dimerization domain of Tel (ETV6) transcription factor (fusion partner, human ETV6 P41212); expressed in transfected cells; host or cells: luciferase expressing Ba/F3 murine hematopoietic progenitor cells; the other entry of the earlier key: ETV6 (P41212, Transcription factor ETV6)
Procedure: as §1, §2, §3, §4

[2] = Mus musculus, BaF3, parental Ba/F3 cells

T1 sequence (P35739 33-799): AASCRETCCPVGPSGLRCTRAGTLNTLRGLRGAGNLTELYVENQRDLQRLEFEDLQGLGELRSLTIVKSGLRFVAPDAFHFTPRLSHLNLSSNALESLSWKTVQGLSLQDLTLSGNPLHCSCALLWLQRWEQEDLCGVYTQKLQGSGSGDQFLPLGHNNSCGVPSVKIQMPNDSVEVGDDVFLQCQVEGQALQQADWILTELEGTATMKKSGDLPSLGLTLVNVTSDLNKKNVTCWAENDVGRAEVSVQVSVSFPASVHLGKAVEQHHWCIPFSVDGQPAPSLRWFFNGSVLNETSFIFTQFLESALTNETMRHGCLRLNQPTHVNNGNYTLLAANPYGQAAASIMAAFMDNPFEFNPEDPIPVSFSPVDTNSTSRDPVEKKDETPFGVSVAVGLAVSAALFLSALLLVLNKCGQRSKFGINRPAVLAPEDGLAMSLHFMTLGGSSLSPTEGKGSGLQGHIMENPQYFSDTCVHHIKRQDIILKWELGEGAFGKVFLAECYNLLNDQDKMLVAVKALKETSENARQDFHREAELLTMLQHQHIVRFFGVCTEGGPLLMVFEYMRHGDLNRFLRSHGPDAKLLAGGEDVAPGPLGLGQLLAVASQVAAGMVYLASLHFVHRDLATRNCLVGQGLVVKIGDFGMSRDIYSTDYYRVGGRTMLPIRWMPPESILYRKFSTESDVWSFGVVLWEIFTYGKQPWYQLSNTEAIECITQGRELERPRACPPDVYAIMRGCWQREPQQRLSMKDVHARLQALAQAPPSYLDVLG
T1 sequence (P01139 122-241 partner): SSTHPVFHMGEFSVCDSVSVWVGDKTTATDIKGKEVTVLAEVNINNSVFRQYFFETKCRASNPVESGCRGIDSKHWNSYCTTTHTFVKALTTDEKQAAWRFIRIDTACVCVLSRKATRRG
T2 sequence (P04629 510-796 limits assumed): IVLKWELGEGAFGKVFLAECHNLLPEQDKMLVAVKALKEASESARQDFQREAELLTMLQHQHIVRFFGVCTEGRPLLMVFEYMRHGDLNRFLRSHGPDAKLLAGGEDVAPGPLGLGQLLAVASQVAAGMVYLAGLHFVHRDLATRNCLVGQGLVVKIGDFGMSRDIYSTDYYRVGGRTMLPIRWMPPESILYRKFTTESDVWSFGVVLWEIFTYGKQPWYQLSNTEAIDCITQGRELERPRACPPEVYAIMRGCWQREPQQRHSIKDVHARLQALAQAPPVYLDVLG
T3 sequence (Q16620 538-822 limits assumed): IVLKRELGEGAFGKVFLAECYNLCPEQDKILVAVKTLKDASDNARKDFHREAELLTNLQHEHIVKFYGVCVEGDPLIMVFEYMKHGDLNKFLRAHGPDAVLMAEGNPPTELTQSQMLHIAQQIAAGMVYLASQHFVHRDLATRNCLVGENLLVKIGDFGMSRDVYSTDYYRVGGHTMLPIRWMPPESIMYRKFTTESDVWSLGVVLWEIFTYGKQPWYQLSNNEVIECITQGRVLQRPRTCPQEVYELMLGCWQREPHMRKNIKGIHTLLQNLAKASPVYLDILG

CC(C)NC(=O)CN1CCN(c2cccc(-c3cnc4ccc(N5CCCC5c5cccc(F)c5)nn34)n2)CC1 (centres unmarked) [Table 4-Compound 32]
BaF3 TRKA-NGF CTG IC 50 [1]: 2.6 nM | IC50 (Tel-TrkA): 1.4 nM | IC50 (parental BaF3 cells; parental Ba/F3 cells): 4990 nM | IC50 (Tel-TrkB): 1.5 nM

OCCN1CCN(c2cccc(-c3cnc4ccc(N5CCOCC5c5cccc(F)c5)nn34)n2)CC1 (centres unmarked) [Table 7-Compound 5]
BaF3 TRKA-NGF CTG IC 50 [1]: 6.4 nM | IC50 (Tel-TrkA): 3.8 nM | IC50 (parental BaF3 cells; [2]): 4820 nM | IC50 (Tel-TrkB): 6.2 nM

NC(=O)C1CCCN(c2cccc(-c3cnc4ccc(N5CCOCC5c5cccc(F)c5)nn34)n2)C1 (centres unmarked) [Table 7-Compound 6]
BaF3 TRKA-NGF CTG IC 50 [1]: 62 nM | IC50 (Tel-TrkA): 23 nM | IC50 (parental BaF3 cells; [2]): > 10000 nM | IC50 (Tel-TrkB): 39 nM

CN1CCC(N2CCN(c3cccc(-c4cnc5ccc(N6CCOCC6c6cccc(F)c6)nn45)n3)CC2)CC1 (centres unmarked) [Table 7-Compound 8]
BaF3 TRKA-NGF CTG IC 50 [1]: 6.1 nM | IC50 (Tel-TrkA): 8.2 nM | IC50 (parental BaF3 cells; [2]): 1570 nM | IC50 (Tel-TrkB): 8.8 nM

Fc1cccc(C2COCCN2c2ccc3ncc(-c4cccc(NCCN5CCNCC5)n4)n3n2)c1 (centres unmarked) [Table 7-Compound 10]
BaF3 TRKA-NGF CTG IC 50 [1]: 77 nM | IC50 (Tel-TrkA): 61 nM | IC50 (parental BaF3 cells; [2]): > 10000 nM | IC50 (Tel-TrkB): 71 nM

CCOC(=O)C1CCN(c2cccc(-c3cnc4ccc(N5CCOCC5c5cccc(F)c5)nn34)n2)CC1 (centres unmarked) [Table 7-Compound 17]
BaF3 TRKA-NGF CTG IC 50 [1]: 93 nM | IC50 (Tel-TrkA): 81 nM | IC50 (parental BaF3 cells; [2]): > 10000 nM | IC50 (Tel-TrkB): 44 nM

Fc1cccc(C2CCCN2c2ccc3ncc(-c4cccc(C5OCCO5)n4)n3n2)c1 (centres unmarked) [Table 7-Compound 18]
BaF3 TRKA-NGF CTG IC 50 [1]: 64 nM | IC50 (Tel-TrkA): 47 nM | IC50 (parental BaF3 cells; [2]): > 10000 nM | IC50 (Tel-TrkB): 4.8 nM

Fc1cccc(C2CCCN2c2ccc3ncc(-c4cccc(-c5cnco5)n4)n3n2)c1 (centres unmarked) [Table 7-Compound 20]
BaF3 TRKA-NGF CTG IC 50 [1]: 3.6 nM | IC50 (Tel-TrkA): 1.8 nM | IC50 (parental BaF3 cells; [2]): > 10000 nM | IC50 (Tel-TrkB): 1.6 nM

CC(C)c1noc(C2CCN(c3cccc(-c4cnc5ccc(N6CCOCC6c6cccc(F)c6)nn45)n3)CC2)n1 (centres unmarked) [Table 7-Compound 21]
BaF3 TRKA-NGF CTG IC 50 [1]: 121 nM | IC50 (Tel-TrkA): 90 nM | IC50 (parental BaF3 cells; [2]): > 10000 nM | IC50 (Tel-TrkB): 67 nM

O=C(NOCC1CC1)C1CCN(c2cccc(-c3cnc4ccc(N5CCOCC5c5cccc(F)c5)nn34)n2)CC1 (centres unmarked) [Table 7-Compound 22]
BaF3 TRKA-NGF CTG IC 50 [1]: 35 nM | IC50 (Tel-TrkA): 43 nM | IC50 (parental BaF3 cells; [2]): > 10000 nM | IC50 (Tel-TrkB): 23 nM

O=C(C1CCN(c2cccc(-c3cnc4ccc(N5CCOCC5c5cccc(F)c5)nn34)n2)CC1)N1CCC(O)C1 (centres unmarked) [Table 7-Compound 26]
BaF3 TRKA-NGF CTG IC 50 [1]: 12 nM | IC50 (Tel-TrkA): 7.7 nM | IC50 (parental BaF3 cells; [2]): > 10000 nM | IC50 (Tel-TrkB): 7.5 nM

Fc1cccc(C2CCCN2c2ccc3ncc(-c4cccc(-c5cnc(N6CCOCC6)nc5)n4)n3n2)c1 (centres unmarked) [Table 7-Compound 54]
BaF3 TRKA-NGF CTG IC 50 [1]: 41 nM | IC50 (Tel-TrkA): 28 nM | IC50 (parental BaF3 cells; [2]): > 10000 nM | IC50 (Tel-TrkB): 37 nM

OC1CCN(c2nccc(-c3cccc(-c4cnc5ccc(N6CCCC6c6cccc(F)c6)nn45)n3)n2)CC1 (centres unmarked) [Table 7-Compound 57]
BaF3 TRKA-NGF CTG IC 50 [1]: 20 nM | IC50 (Tel-TrkA): 20 nM | IC50 (parental BaF3 cells; [2]): 6900 nM | IC50 (Tel-TrkB): 20 nM

CN(C)c1nccc(-c2cccc(-c3cnc4ccc(N5CCCC5c5cccc(F)c5)nn34)n2)n1 (centres unmarked) [Table 7-Compound 58]
BaF3 TRKA-NGF CTG IC 50 [1]: 210 nM | IC50 (Tel-TrkA): 115 nM | IC50 (parental BaF3 cells; [2]): > 10000 nM | IC50 (Tel-TrkB): 150 nM
